Measurements from US3975538A, “Miticidally active compositions” (priority 1974, dated 1976).

Columns and labels:
[1] = tested on: citrus red mite, Panonychus citri; test: Experiment 1 miticidal test (citrus red mite on potted lemon tree); format: in vivo; conditions: 240 h, larvae and adults, 200 ppm in water, 20 cc spray, 10 days at 28°C, read-out: Evaluation (mortality of mites and eggs)
Description: In this experiment, approximately 50 larvae and adults of the citrus red mite, Panonychus citri were first released on the leaves of a young lemon tree, with about 10 leaves, growing in a pot (9 cm in diameter). […] Two days later, each potted plant was sprayed with 20 cc of one of these preparations with a spray gun (under 1 kg/cm^2 pressure, 80 cm distance from the plant) in a spray chamber. After the spraying, the pots were placed in a air-conditioned greenhouse (28°C) for 10 days, the number of mites and eggs surviving on the leaves counted.

[2] = tested on: Kanzawa spider mite, Tetranychus kanzawai; test: Experiment 3 miticidal test (Kanzawa spider mite on pea seedling); format: in vivo; conditions: female adults, 500 ppm in water, 20 cc spray, three repeats, read-out: Evaluation (mortality of mites)
From the text: (§1) Criteria for evaluating effectiveness:
In this experiment, one day after approximately 50 female adults of the Kanzawa spider mite, Tetranychus kanzawai, were placed on the leaves of a seedling of the pea plant (5 days after germination), growing in pots (9 cm in diameter), the plant was sprayed with emulsion of the compound of Formula (I), diluted to 500 ppm in water. […] The test was repeated three times.

[3] = tested on: two-spotted spider mite, Tetranychus urticae; test: Experiment 2 miticidal test (two-spotted spider mite on pea seedling); format: in vivo; conditions: 48 h, female adults, 500 ppm in water, 20 cc spray, 2 days at 28°C, read-out: Evaluation (mortality of mites)
Description: as §1
After spraying the pots were placed in a air-conditioned greenhouse (28°C) for 2 days.

eggs of citrus red mite = test: Experiment 4 ovicidal test (citrus red mite eggs on trifoliate orange); format: in vivo, Panonychus citri; conditions: 500 ppm in water, 20 cc spray, 7 days at 28°C, three repeats
Description: as §1
In this experiment, 20 female adults of the citrus red mite were released on the leaves of the potted trifoliate orange (15 cm in height). The pots were then placed in a air-conditioned greenhouse (28°C) for 2 days. Then the adults were removed from the plant and the eggs laid on the leaves were subjected to the ovicidal test. The number of the eggs on each plant was counted prior to the chemical application. […] 20 cc of each compound was sprayed on one of the plants. After spraying, the pots were returned to the air-conditioned greenhouse and kept there for 7 days. Then, by microscopic inspection, the numbers of unhatched eggs, the larvae which died after hatching, and the surviving larvae, respectively, on each plant were counted.

[4] = tested on: citrus red mite which show resistance to citrazon; test: Experiment 5 test on citrazon-resistant citrus red mite; format: in vivo; conditions: Panonychus citri, 48 h, read-out: Death rate
Description: 100 female adults of citrus red mite which show resistance to citrazon were released on the leaves of the potted trifoliate orange (The pot: 9 cm in diameter). 20 cc each of the emulsions 100 prepared in Example 4, of compound No.4 and citrazon (mentioned before) for comparison of different concentrations was sprayed on one of the pots. After spraying the pots were kept in a kasten for 2 days and from the number of the surviving mites the death rates were calculated.

| SMILES | mortality at 200 ppm [1] | mortality at 500 ppm [2] | mortality at 500 ppm [3] | Evaluation (ovicidal effectiveness) (eggs of citrus red mite) | other results |
| --- | --- | --- | --- | --- | --- |
| CCOC(=NOC(=O)c1ccccc1)c1c(OC)ccc2ccccc12 [Control No. 1, ethyl O-benzoyl-2-methoxy-1-naphthohydroxamate] | < 49% | < 49% | < 49% | - (49 % or less) | – |
| CCOC(=NOC(=O)c1ccccc1)c1c(OC)ccc(Cl)c1OC [Citrazon, ethyl O-benzoyl-3-chloro-2,6-dimethoxybenzohydroxamate] | – | – | – | – | mortality at 12.5 ppm [4]: 19.5%; mortality at 25 ppm [4]: 25.8%; mortality at 50 ppm [4]: 40.6%; mortality at 100 ppm [4]: 40.5%; mortality at 200 ppm [4]: 43.5%; mortality at 400 ppm [4]: 68% |
| CCOC(=NOC(=O)c1ccc(C)cc1)c1c(OC)ccc2ccccc12 [Control No. 2, ethyl 0-(4-methylbenzoyl)-2-methoxy-1-naphthohydroxamate] | < 49% | < 49% | < 49% | - (49 % or less) | – |
| CCOC(=O)ON=C(OCC)c1c(OC)ccc2ccccc12 [compound 2, ethyl O-ethoxycarbonyl-2-methoxy-1-naphthohydroxamate] | 90 to 99% | – | – | ++ (90 - 99 %) | – |
| CCOC(=NOC(=O)SC(C)C)c1c(OC)ccc2ccccc12 [compound 13, ethyl O-isopropylthiocarbonyl-2-methoxy-1-naphthohydroxamate] | 100% | – | – | – | – |
